From US20200247800A1, “SUBSTITUTED BICYCLIC HETEROCYCLIC COMPOUNDS AS NADPH OXIDASE INHIBITORS” (Glenmark Pharmaceuticals S.A., priority 2017, published 2020)
pIC50: −log10 of the molar value.

Target: T1, human NOX4 (Homo sapiens, UniProt Q9NPH5)
T1 construct: expressed in transfected cells; membrane fraction used
T1 sequence (Q9NPH5 1-578): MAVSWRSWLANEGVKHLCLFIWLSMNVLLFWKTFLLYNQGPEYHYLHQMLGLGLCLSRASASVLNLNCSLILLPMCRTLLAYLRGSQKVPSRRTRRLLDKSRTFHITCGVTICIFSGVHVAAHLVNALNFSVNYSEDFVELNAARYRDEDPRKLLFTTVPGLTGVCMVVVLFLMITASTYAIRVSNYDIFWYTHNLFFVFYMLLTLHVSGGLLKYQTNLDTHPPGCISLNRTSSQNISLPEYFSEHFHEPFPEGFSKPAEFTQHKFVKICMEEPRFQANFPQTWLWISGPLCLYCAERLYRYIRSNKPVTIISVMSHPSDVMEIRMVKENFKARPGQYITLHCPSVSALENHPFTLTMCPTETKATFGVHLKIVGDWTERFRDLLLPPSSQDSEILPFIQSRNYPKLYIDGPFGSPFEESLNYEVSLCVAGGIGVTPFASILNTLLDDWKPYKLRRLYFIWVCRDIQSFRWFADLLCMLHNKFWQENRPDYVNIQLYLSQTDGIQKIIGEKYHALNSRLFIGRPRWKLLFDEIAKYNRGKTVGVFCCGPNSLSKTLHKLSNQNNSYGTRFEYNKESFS
T1 sequence (P13498 1-195 partner): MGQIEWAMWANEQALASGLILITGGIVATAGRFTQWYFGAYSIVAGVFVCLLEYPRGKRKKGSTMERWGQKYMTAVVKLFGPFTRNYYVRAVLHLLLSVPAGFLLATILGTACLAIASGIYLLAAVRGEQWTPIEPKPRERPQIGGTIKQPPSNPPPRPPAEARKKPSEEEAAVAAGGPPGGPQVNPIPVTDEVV
Assay: Cell free membrane based in vitro NOX4 assay: H2O2 production by membranes expressing human NOX4, measured with Amplex Red
Type: biochemical
Conditions: for inhibition at 1 µM: 1.0 μM compound, read-out: Percentage inhibition at 1.0 μM; for inhibition at 10 µM: 10.0 μM compound, read-out: Percentage inhibition at 10.0 μM; for pIC50: class symbols
Summary of the method: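 IC50 came from concentration-response curves fitted as % of the inhibitor-free maximum. H2O2 formation was monitored for 10 min via Amplex Red/HRP fluorescence (544/590 nm) after NADPH start. Membranes from a stable hNOX4/HEK line had 20 min exposure to inhibitor beforehand at pH 7.4.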

What does the source list for `CCn1nc(C(F)F)c2c(=O)c(O)c(-c3c(F)cccc3F)[nH]c21` [Example 99, 3-(Difluoromethyl)-6-(2,6-difluorophenyl)-1-ethyl-5-hydroxy-1H-pyrazolo[3,4-b]pyridin-4(7H)-one]?
inhibition at 1 µM: 71.3%; inhibition at 10 µM: 85.1%; pIC50: < 6.82

How did the inhibition at 1 µM turn out when `CCn1nc(C)c2c(=O)c(O)c(-c3c(F)cccc3F)[nH]c21` [Example 68, 6-(2,6-Difluorophenyl)-1-ethyl-5-hydroxy-3-methyl-1H-pyrazolo[3,4-b]pyridin-4(7H)-one] was run?
Its inhibition at 1 µM is 84.3%.

And the inhibition at 10 µM?
The inhibition at 10 µM was 80.3%.

What about the pIC50 of the same compound?
Its pIC50 is 7.00 to 7.30.

For `Cc1nn(C(C)C)c2[nH]c(-c3ccccc3Cl)c(O)c(=O)c12` [Example 28, 6-(2-Chlorophenyl)-5-hydroxy-3-methyl-1-(propan-2-yl)-1,7-dihydro-4H-pyrazolo[3,4-b]pyridin-4-one], which inhibition at 1 µM is on record?
Its inhibition at 1 µM is 82.1%.

What about the inhibition at 10 µM of the same compound?
Its inhibition at 10 µM is 58.9%.

And the pIC50?
Its pIC50 is 6.82 to 7.00.

How did the inhibition at 1 µM turn out when `Cc1c2c(=O)c(O)c(-c3ccccc3Cl)[nH]c2nn1C` [Example 59, 6-(2-Chlorophenyl)-5-hydroxy-2,3-dimethyl-2,7-dihydro-4H-pyrazolo[3,4-b]pyridin-4-one] was run?
Its inhibition at 1 µM is 41.1%.

What about the inhibition at 10 µM of the same compound?
The inhibition at 10 µM was 38.8%.

What does the source list for `CCc1nn(CC2CCOCC2)c2[nH]c(-c3c(F)cccc3F)c(O)c(=O)c12` [Example 207, 6-(2,6-Difluorophenyl)-3-ethyl-5-hydroxy-1-((tetrahydro-2H-pyran-4-yl)methyl)-1H-pyrazolo[3,4-b]pyridin-4(7H)-one]?
inhibition at 1 µM: 87.8%; inhibition at 10 µM: 88.2%; pIC50: 7.00 to 7.30

What does the source list for `CCn1nc(CC(C)C)c2c(=O)c(O)c(-c3c(F)cccc3F)[nH]c21` [Example 122, 6-(2,6-Difluorophenyl)-1-ethyl-5-hydroxy-3-(2-methylpropyl)-1,7-dihydro-4H-pyrazolo[3,4-b]pyridin-4-one]?
inhibition at 1 µM: 72.7%; inhibition at 10 µM: 75.4%; pIC50: < 6.82

Which results are given for `COCCOc1ccc(-c2[nH]c3c(c(C(F)(F)F)nn3C)c(=O)c2O)c(F)c1` [Example 66, 6-(2-Fluoro-4-(2-methoxyethoxy)phenyl)-5-hydroxy-1-methyl-3-(trifluoromethyl)-1H-pyrazolo[3,4-b]pyridin-4(7H)-one]?
inhibition at 1 µM: 100%; inhibition at 10 µM: 100%; pIC50: < 6.82

With `Cc1nn(C)c2[nH]c(-c3ccc(F)c(F)c3)c(O)c(=O)c12` [Example 17, 6-(3,4-Difluorophenyl)-5-hydroxy-1,3-dimethyl-1,7-dihydro-4H-pyrazolo[3,4-b]pyridin-4-one] as the compound, how does the inhibition at 1 µM read?
Its inhibition at 1 µM is 63.9%.

Which results are given for `Cn1nc(CN2CCN(CCF)CC2)c2c(=O)c(O)c(-c3c(F)cccc3F)[nH]c21` [Example 221, 6-(2,6-Difluorophenyl)-3-((4-(2-fluoroethyl)piperazin-1-yl)methyl)-5-hydroxy-1-methyl-1H-pyrazolo[3,4-b]pyridin-4(7H)-one]?
inhibition at 1 µM: 84%; inhibition at 10 µM: 97.1%; pIC50: < 6.82

How did the inhibition at 1 µM turn out when `Cc1nn(Cc2ccc(F)cc2)c2[nH]c(-c3c(F)cccc3F)c(O)c(=O)c12` [Example 84, 6-(2,6-Difluorophenyl)-1-(4-fluorobenzyl)-5-hydroxy-3-methyl-1H-pyrazolo[3,4-b]pyridin-4(7H)-one] was run?
The inhibition at 1 µM was 80.2%.

And the inhibition at 10 µM?
The inhibition at 10 µM was 88.6%.

And the pIC50?
Its pIC50 is less than 6.82.

Which inhibition at 1 µM does the source give for `Cc1c2oc(-c3ccccc3Cl)c(O)c(=O)c2nn1C(C)C` [Example 228, 5-(2-Chlorophenyl)-6-hydroxy-3-methyl-2-(propan-2-yl)pyrano[3,2-c]pyrazol-7(2H)-one] here?
Its inhibition at 1 µM is 8.66%.

And the inhibition at 10 µM?
The inhibition at 10 µM was 11%.

`O=c1c(O)c(-c2ccccc2Cl)[nH]c2c1c(C(F)(F)F)nn2C1CCOCC1` [Example 130, 6-(2-Chlorophenyl)-5-hydroxy-1-(tetrahydro-2H-pyran-4-yl)-3-(trifluoromethyl)-1H-pyrazolo[3,4-b]pyridin-4(7H)-one] was tested. Which inhibition at 1 µM did it give?
The inhibition at 1 µM was 69.6%.

And the inhibition at 10 µM?
Its inhibition at 10 µM is 98.5%.

And the pIC50?
Its pIC50 is less than 6.82.

`Cn1nc(C(F)(F)F)c2c(=O)c(O)c(-c3ccc(F)cc3)[nH]c21` [Example 42, 6-(4-Fluorophenyl)-5-hydroxy-1-methyl-3-(trifluoromethyl)-1,7-dihydro-4H-pyrazolo[3,4-b]pyridin-4-one] was tested. Which inhibition at 1 µM did it give?
Its inhibition at 1 µM is 86.8%.

What about the inhibition at 10 µM of the same compound?
Its inhibition at 10 µM is 96.5%.

And the pIC50?
Its pIC50 is 6.82 to 7.00.

`CCn1nc(C)c2c(=O)c(O)c(-c3cccc(C(F)(F)F)c3F)[nH]c21` [Example 104, 1-Ethyl-6-[2-fluoro-3-(trifluoromethyl)phenyl]-5-hydroxy-3-methyl-1,7-dihydro-4H-pyrazolo[3,4-b]pyridin-4-one] was tested. Which inhibition at 1 µM did it give?
Its inhibition at 1 µM is 99.8%.

What about the inhibition at 10 µM of the same compound?
Its inhibition at 10 µM is 96.9%.

What about the pIC50 of the same compound?
The pIC50 was 6.82 to 7.00.

Which results are given for `CCc1nn(CCC2CCOCC2)c2[nH]c(-c3c(F)cccc3F)c(O)c(=O)c12` [Example 211]?
inhibition at 1 µM: 92.4%; inhibition at 10 µM: 93.7%; pIC50: 7.00 to 7.30

Which inhibition at 1 µM does the source give for `Cc1ccc(F)c(-c2[nH]c3c(c(C)nn3C3CC3)c(=O)c2O)c1F` [Example 93, 1-Cyclopropyl-6-(2,6-difluoro-3-methylphenyl)-5-hydroxy-3-methyl-1H-pyrazolo[3,4-b]pyridin-4(7H)-one] here?
The inhibition at 1 µM was 69.1%.

What about the inhibition at 10 µM of the same compound?
The inhibition at 10 µM was 79.6%.

And the pIC50?
The pIC50 was less than 6.82.

With `Cc1nn(C2CC2)c2[nH]c(-c3cccc(F)c3F)c(O)c(=O)c12` [Example 96, 1-Cyclopropyl-6-(2,3-difluorophenyl)-5-hydroxy-3-methyl-1H-pyrazolo[3,4-b]pyridin-4(7H)-one] as the compound, how does the inhibition at 1 µM read?
The inhibition at 1 µM was 67.3%.

What about the inhibition at 10 µM of the same compound?
The inhibition at 10 µM was 72.3%.

And the pIC50?
The pIC50 was less than 6.82.

For `Cc1nn(-c2ccc(F)cc2)c2[nH]c(-c3ccccc3Cl)c(O)c(=O)c12` [Example 33, 6-(2-Chlorophenyl)-1-(4-fluorophenyl)-5-hydroxy-3-methyl-1,7-dihydro-4H-pyrazolo[3,4-b]pyridin-4-one], which inhibition at 1 µM is on record?
Its inhibition at 1 µM is 100%.

What about the inhibition at 10 µM of the same compound?
Its inhibition at 10 µM is 100%.

What about the pIC50 of the same compound?
The pIC50 was greater than 7.30.

With `Cc1nn(C)c2[nH]c(-c3c(F)cccc3F)c(O)c(=O)c12` [Example 13, 6-(2,6-Difluorophenyl)-5-hydroxy-1,3-dimethyl-1,7-dihydro-4H-pyrazolo[3,4-b]pyridin-4-one] as the compound, how does the inhibition at 1 µM read?
Its inhibition at 1 µM is 99.6%.

What about the inhibition at 10 µM of the same compound?
The inhibition at 10 µM was 98.7%.

What about the pIC50 of the same compound?
The pIC50 was greater than 7.30.

With `CCc1nn(C)c2[nH]c(-c3c(F)cccc3F)c(O)c(=O)c12` [Example 71, 6-(2,6-Difluorophenyl)-3-ethyl-5-hydroxy-1-methyl-1H-pyrazolo[3,4-b]pyridin-4(7H)-one] as the compound, how does the inhibition at 1 µM read?
The inhibition at 1 µM was 81.5%.

And the inhibition at 10 µM?
Its inhibition at 10 µM is 79.3%.

What about the pIC50 of the same compound?
Its pIC50 is greater than 7.30.

What does the source list for `Cc1nn(CCCO)c2[nH]c(-c3c(F)cccc3F)c(O)c(=O)c12` [Example 232, 6-(2,6-Difluorophenyl)-5-hydroxy-1-(3-hydroxypropyl)-3-methyl-1H-pyrazolo[3,4-b]pyridin-4(7H)-one]?
inhibition at 1 µM: 85.1%; inhibition at 10 µM: 84.8%; pIC50: 7.00 to 7.30

Which inhibition at 1 µM does the source give for `O=c1c(O)c(-c2ccccc2Cl)[nH]c2c1cnn2-c1ccc(F)cc1` [Example 10, 6-(2-Chlorophenyl)-1-(4-fluorophenyl)-5-hydroxy-1,7-dihydro-4H-pyrazolo[3,4-b]pyridin-4-one] here?
Its inhibition at 1 µM is 100%.

And the inhibition at 10 µM?
The inhibition at 10 µM was 100%.

And the pIC50?
The pIC50 was greater than 7.30.

What does the source list for `CCc1nn(CCN2C[C@@H](C)O[C@@H](C)C2)c2[nH]c(-c3c(F)cccc3F)c(O)c(=O)c12` [Example 200, 6-(2,6-Difluorophenyl)-1-(2-((2R,6S)-2,6-dimethylmorpholino)ethyl)-3-ethyl-5-hydroxy-1H-pyrazolo[3,4-b]pyridin-4(7H)-one]?
inhibition at 1 µM: 91.4%; inhibition at 10 µM: 90.7%; pIC50: > 7.30

For `Cn1nc(CN2CCOCC2)c2c(=O)c(O)c(-c3c(F)cccc3F)[nH]c21` [Example 191, 6-(2,6-difluorophenyl)-5-hydroxy-1-methyl-3-(morpholinomethyl)-1H-pyrazolo[3,4-b]pyridin-4(7H)-one], which inhibition at 1 µM is on record?
Its inhibition at 1 µM is 91.2%.

And the inhibition at 10 µM?
Its inhibition at 10 µM is 97.8%.

And the pIC50?
The pIC50 was 7.00 to 7.30.

With `Cn1ncc2c(=O)c(O)c(-c3c(F)cccc3Cl)[nH]c21` [Example 7, 6-(2-Chloro-6-fluorophenyl)-5-hydroxy-1-methyl-1,7-dihydro-4H-pyrazolo[3,4-b]pyridin-4-one] as the compound, how does the inhibition at 1 µM read?
Its inhibition at 1 µM is 100%.

What about the inhibition at 10 µM of the same compound?
The inhibition at 10 µM was 100%.

And the pIC50?
The pIC50 was 7.00 to 7.30.

With `O=c1c(O)c(-c2c(F)cccc2F)[nH]c2c1c(C1CCOCC1)nn2-c1ccc(F)cc1` [Example 204, 6-(2,6-Difluorophenyl)-1-(4-fluorophenyl)-5-hydroxy-3-(tetrahydro-2H-pyran-4-yl)-1H-pyrazolo[3,4-b]pyridin-4(7H)-one] as the compound, how does the inhibition at 1 µM read?
The inhibition at 1 µM was 95.2%.

And the inhibition at 10 µM?
The inhibition at 10 µM was 99.7%.

What about the pIC50 of the same compound?
Its pIC50 is 6.82 to 7.00.

Which results are given for `Cc1nn(CCN2CCN(C)CC2)c2[nH]c(-c3ccccc3Cl)c(O)c(=O)c12` [Example 155, 6-(2-chlorophenyl)-5-hydroxy-3-methyl-1-(2-(4-methylpiperazin-1-yl)ethyl)-1H-pyrazolo[3,4-b]pyridin-4(7H)-one]?
inhibition at 1 µM: 100%; inhibition at 10 µM: 93.3%; pIC50: > 7.30
